Data: patent US20090123561A1, “Fungicide mixtures based on 1-methyl-pyrazol-4-ylcarboxanilides” (BASF AKTIENGESELLLSCHAFT, priority 2005, published 2009)

Assays:
Type in all cases: in vivo
Botrytis cinerea = assay: Activity against gray mold on bell pepper leaves caused by Botrytis cinerea, 1 day protective application; conditions: efficacy in % of untreated control, read after 5 days
Protocol: (§1) The active compounds, separately or jointly, were prepared as a stock solution comprising 25 mg of active compound which was made up to 10 ml using a mixture of acetone and/or dimethyl sulfoxide and the emulsifier Uniperol® EL (wetting agent having an emulsifying and dispersing action based on ethoxylated alkylphenols) in a ratio by volume of solvent/emulsifier of 99:1. The mixture was then made up to 100 ml with water. This stock solution was diluted with the solvent/emulsifier/water mixture described to give the concentration of active compound stated below.
(§2) Alternatively, the active compounds epoxiconazole and pyraclostrobin were used as a commercial formulation and diluted with water to the stated active compound concentrations.
(§3) The visually determined percentages of infected leaf areas were converted into efficacies in % of the untreated control:
(§4) The efficacy (E) is calculated as follows using Abbot's formula: […]
(§5) α corresponds to the fungicidal infection of the treated plants in % and β corresponds to the fungicidal infection of the untreated (control) plants in %
(§6) An efficacy of 0 means that the infection level of the treated plants corresponds to that of the untreated control plants; an efficacy of 100 means that the treated plants are not infected.
(§7) The expected efficacies of active compound combinations were determined using Colby's formula (Colby, S. R. “Calculating synergistic and antagonistic responses of herbicide combinations”, Weeds, 15, pp. 20-22, 1967) and compared with the observed efficacies.
(§8) E=x+y−x·y/100 Colby's formula • E expected efficacy, expressed in % of the untreated control, when using the mixture of the active compounds A and B at the concentrations a and b • x efficacy, expressed in % of the untreated control, when using the active compound A at the concentration a • y efficacy, expressed in % of the untreated control, when using the active compound B at the concentration b
Activity Against Gray Mold on Bell Pepper Leaves Caused by Botrytis cinerea, 1 Day Protective Application
Bell pepper seedlings of the cultivar “Neusiedler Ideal Elite” were, after 2-3 leaves were well developed, sprayed to runoff point with an aqueous suspension in the active compound concentrations stated below. The next day, the treated plants were inoculated with a spore suspension of Botrytis cinerea which comprised 1.7×10^6 spores/ml in a 2% strength aqueous biomalt solution. The test plants were then placed in a dark climatized chamber at 22 to 24° C. and high atmospheric humidity. After 5 days, the extent of the fungal infection on the leaves could be determined visually in %.

Alternaria solani = assay: Activity against early blight of tomato caused by Alternaria solani (protective spray on potted tomato plants); conditions: read after 5 days
Protocol: as §1, §2, §3, §4, §5, §6, §7, §8
Activity Against Early Blight of Tomato Caused by Alternaria solani
Leaves of potted tomato plants were sprayed to runoff point with an aqueous suspension having the active compound concentration stated below. The next day, the leaves were infected with an aqueous spore suspension of Alternaria solani in a 2% strength biomalt solution having a density of 0.17×10^6 spores/ml. The plants were then placed in a water vapor-saturated chamber at temperatures between 20 and 22° C. After 5 days, the disease on the untreated but infected control plants had developed to such an extent that the infection could be determined visually in %.

[1] = test system: Pyrenophora [syn. Drechslera] teres; assay: Activity against net blotch of barley caused by Pyrenophora teres, 1 day protective application; conditions: barley seedlings, efficacy in % of untreated control, read after 6 days
Protocol: as §1, §2, §3, §4, §5, §6, §7, §8
Activity Against Net Blotch of Barley Caused by Pyrenophora teres, 1 Day Protective Application
Leaves of potted barley seedlings were sprayed to runoff point with an aqueous suspension having the active compound concentration stated below. 24 hours after the spray coating had dried on, the test plants were inoculated with an aqueous spore suspension of Pyrenophora [syn. Drechslera] teres, the net blotch pathogen. The test plants were then placed in a greenhouse at temperatures between 20 and 24° C. and at 95 to 100% relative atmospheric humidity. After 6 days, the extent of the development of the disease was determined visually in % infection of the entire leaf area.

[2] = single active compound 63 mg/l, efficacy in % of untreated control (Abbot)

## COC(=O)N(OC)c1ccccc1COc1ccn(-c2ccc(Cl)cc2)n1 [pyraclostrobin, methyl N-{2-[1-(4-chlorophenyl)-1H-pyrazol-3-yloxymethyl]phenyl}(N-methoxy)carbamate]
Botrytis cinerea; single active compound 16 mg/l
  Efficacy (% of untreated control): 11%

## N#Cc1c(Cl)c(Cl)c(Cl)c(C#N)c1Cl [chlorothalonil, 2,4,5,6-tetrachloroisophthalonitrile]
Alternaria solani; [2]
  Efficacy (% of untreated control, Abbott): 0%

## Cn1cc(C(=O)Nc2ccccc2-c2ccccc2C(F)(F)F)c(C(F)(F)F)n1 [No. 57, N-(2′-trifluoromethylbiphen-2-yl)-1-methyl-3-trifluoromethyl-1H-pyrazole-4-carboxamide]
Botrytis cinerea; single active compound 4 mg/l
  Efficacy (% of untreated control): 0%
Botrytis cinerea; single active compound 16 mg/l
  Efficacy (% of untreated control): 0%
Botrytis cinerea; single active compound 63 mg/l
  Efficacy (% of untreated control): 22%
[1]; single active compound 16 mg/l
  Efficacy (% of untreated control): 41%

## COc1cc(C)c(C(=O)c2c(OC)ccc(Br)c2C)c(OC)c1OC [metrafenone, 3′-bromo-2,3,4,6′-tetramethoxy-2′,6-dimethylbenzophenone]
Botrytis cinerea; single active compound 16 mg/l
  Efficacy (% of untreated control): 0%

## O=c1c2cc(F)ccc2nc(-n2cncn2)n1-c1ccc(Cl)cc1Cl [fluquinconazole, 3-(2,4-dichlorophenyl)-6-fluoro-2-[1,2,4]-triazol-1-yl-3H-quinazolin-4-one]
Alternaria solani; single active compound 4 mg/l, efficacy in % of untreated control
  Efficacy (% of untreated control, Abbott): 0%

## COc1ccc(C(=CC(=O)N2CCOCC2)c2ccc(Cl)cc2)cc1OC [dimethomorph, 3-(4-chlorophenyl)-3-(3,4-dimethoxyphenyl)-1-morpholin-4-yl-propenone]
[1]; single active compound 4 mg/l
  Efficacy (% of untreated control): 0%

## Fc1ccc([C@]2(Cn3cncn3)O[C@H]2c2ccccc2Cl)cc1 (racemic) [epoxiconazole, (2RS,3SR)-1-[3-(2-chlorophenyl)-2,3-epoxy-2-(4-fluorophenyl)propyl]-1H-1,2,4-triazole]
[1]; single active compound 1 mg/l
  Efficacy (% of untreated control): 0%

## Cn1cc(C(=O)Nc2ccccc2-c2ccccc2C(F)(F)F)c(C(F)F)n1 [No. 40, N-(2′-trifluoromethylbiphen-2-yl)-1-methyl-3-difluoromethyl-1H-pyrazole-4-carboxamide]
Alternaria solani; [2]
  Efficacy (% of untreated control, Abbott): 25%
Botrytis cinerea; single active compound 16 mg/l
  Efficacy (% of untreated control): 11%
Botrytis cinerea; single active compound 63 mg/l
  Efficacy (% of untreated control): 44%
[1]; single active compound 4 mg/l
  Efficacy (% of untreated control): 18%

## Cc1cc(C)nc(Nc2ccccc2)n1 [pyrimethanil, 4,6-dimethylpyrimidin-2-ylphenylamine]
Botrytis cinerea; single active compound 4 mg/l
  Efficacy (% of untreated control): 0%
Botrytis cinerea; single active compound 63 mg/l
  Efficacy (% of untreated control): 0%

## zinc ammoniate ethylenebis(dithiocarbamate) [metiram]
Alternaria solani; [2]
  Efficacy (% of untreated control, Abbott): 0%

## CC(C)(C)C(O)(CCc1ccc(Cl)cc1)Cn1cncn1 (centres unmarked) [tebuconazole, 1-(4-chlorophenyl)-4,4-dimethyl-3-[1,2,4]triazol-1-ylmethylpentan-3-ol]
[1]; single active compound 4 mg/l
  Efficacy (% of untreated control): 0%

## CO/N=C(/C(=O)OC)c1ccccc1COc1ccccc1C [kresoximmethyl, methyl (E)-methoxyimino[α-(o-tolyloxy)-o-tolyl]acetate]
Botrytis cinerea; single active compound 16 mg/l
  Efficacy (% of untreated control): 0%
Botrytis cinerea; single active compound 63 mg/l
  Efficacy (% of untreated control): 0%
